Laboratory results published in PubChem BioAssay (NCI).
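Each compound was tested at five concentrations against cells in 96-well plates for 48 hours. Definition used: TGI = concentration required for complete inhibition of growth.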

What was measured:
Test in all cases: growth of human tumour cells (NCI), 48 h
HT29 colon = system: HT29 colon
CCRF-CEM leukemia = system: CCRF-CEM leukemia
SN12C renal = system: SN12C renal
UACC-257 melanoma = system: UACC-257 melanoma
SF-295 CNS = system: SF-295 CNS
SK-OV-3 ovarian = system: SK-OV-3 ovarian
A498 renal = system: A498 renal
MDA-N = system: MDA-N
CAKI-1 renal = system: CAKI-1 renal
HL-60(TB) leukemia = system: HL-60(TB) leukemia
TK-10 renal = system: TK-10 renal

SMILES | TGI (HT29 colon) [µM] | TGI (CCRF-CEM leukemia) [µM] | TGI (SN12C renal) [µM] | TGI (UACC-257 melanoma) [µM] | TGI (SF-295 CNS) [µM] | TGI (SK-OV-3 ovarian) [µM] | TGI (A498 renal) [µM] | TGI (MDA-N) [µM] | TGI (CAKI-1 renal) [µM] | TGI (HL-60(TB) leukemia) [µM] | TGI (TK-10 renal) [µM]
Cc1cc(C)c2c(=O)n(CC(O)CN3CCN(c4ncccn4)CC3)sc2n1 (centres undefined) | 29.6 | > 100 | 31.6 | 30.4 | > 100 | 32.8 | 31.1 | 29.5 | 39.5 | 38.9 | 32.1
Cc1cc2nc(N)n[n+]([O-])c2cc1C | > 100 | > 100 | > 100 | > 100 | > 100 | > 100 | > 100 | > 100 | > 100 | > 100 | > 100
O=C(NC12CC3CC(CC(C3)C1)C2)n1cnc2cncnc21 | > 100 | > 100 | > 100 | > 100 | 67.6 | 47.1 | > 100 | > 100 | > 100 | > 100 | > 100
COc1cc(C(C)(C)C)c(OC(=O)/C=C/C(=O)O/C=C/[N+](=O)[O-])c(C(C)(C)C)c1 | 56.6 | 37.3 | > 100 | > 100 | > 100 | > 100 | 96.6 | > 100 | 57.5 | 4.29 | > 100
Cc1ccc(N=c2oc3c(ccc4ccccc43)nc2Nc2ccc(C)cc2)cc1 | > 100 | > 100 | > 100 | > 100 | > 100 | > 100 | > 100 | > 100 | > 100 | > 100 | > 100
COc1c(Cl)ccc(Cl)c1-c1nnc(-c2c(Cl)c(Cl)c(Cl)c(Cl)c2-c2nc3ccc(C(=O)c4ccccc4)cc3[nH]2)o1 | > 100 | 91.7 | > 100 | > 100 | 85.7 | > 100 | 85.5 | 46.4 | > 100 | > 100 | > 100
COc1ccc(NC(=O)c2cc(NC(=O)/C=C/c3ccccc3)c(OC)c(OC)c2)cc1 | > 100 | > 100 | > 100 | > 100 | > 100 | > 100 | > 100 | 16.5 | > 100 | 45.4 | > 100
CCCCOP(=O)(OCCCC)C(NS(=O)(=O)c1ccccc1)(C(=O)OCC)C(F)(F)F (centres undefined) | > 100 | 72.5 | 90.4 | 79.3 | > 100 | > 100 | 76.1 | > 100 | > 100 | 47.8 | 87.6
NC1=CN2c3ccccc3N(CC(=O)N3CCOCC3)C2C=C1 (centres undefined) | > 100 | > 100 | > 100 | > 100 | > 100 | > 100 | > 100 | > 100 | > 100 | > 100 | > 100
C/C(=C/CC[C@](C)(OC1OC(CO)C(O)C(O)C1OC1OC(C)C(O)C(O)C1O)[C@H]1CC[C@]2(C)[C@@H]1CC[C@@H]1[C@@]3(C)CC[C@H](O)C(C)(C)[C@@H]3C[C@H](O)[C@]12C)CO (some centres undefined) | > 100 | > 100 | > 100 | > 100 | > 100 | > 100 | > 100 | > 100 | > 100 | > 100 | > 100
NC(=O)c1ccc(N)nc1 | > 229 | 394 | > 400 | > 400 | > 400 | > 400 | > 400 | > 400 | > 400 | > 400 | > 400
COc1cc2[nH]c(=O)[nH]c2c2c(C)c[nH]c12 | > 100 | > 100 | > 100 | > 100 | > 100 | > 100 | > 100 | > 100 | > 100 | > 100 | > 100
O=C(NCCc1ccc(F)cc1)c1cc(/C=C/c2cc(O)ccc2O)ccc1O | 62.1 | > 100 | 21.1 | 6.52 | 36.2 | 27.9 | 14.1 | 9.59 | 15 | 15.4 | 5.64
CC(CCC(=O)O)(c1cc(Br)c(O)c(Br)c1)c1cc(Br)c(O)c(Br)c1 | > 100 | > 100 | > 100 | > 100 | > 100 | > 100 | 87.7 | > 100 | > 100 | > 100 | > 100
C/C(=N\NC(=S)N/N=C(\C)c1ccccn1)c1ccccn1 | > 100 | 1.7 | > 100 | > 100 | > 100 | > 100 | 82.6 | > 100 | 5.24 | > 100 | > 100
O=C(OCc1ccccc1[N+](=O)[O-])N1c2ccccc2[C@@]23O[C@]24CCC[C@H]3C#C/C=C\C#C[C@H]14 | > 100 | 66.6 | 68.2 | > 100 | > 100 | > 100 | > 100 | > 100 | > 100 | 25.9 | > 100
CN(CCN(C)Cc1ccc(Cl)c(Cl)c1)CCN1CCCC1 | > 72 | 23.6 | > 100 | 23.9 | > 88.7 | > 100 | 35.3 | 31.4 | > 100 | > 100 | > 100
Cc1cc([C@H](C#N)c2nc3ccccc3s2)nc(Cl)n1 | 21.4 | > 100 | > 100 | 22.4 | > 100 | 56.5 | 31.3 | > 100 | 31 | > 100 | 44.1
O=C(O)C(C1NCCS1)N1Cc2ccccc2C1 (centres undefined) | > 100 | > 100 | > 100 | > 100 | > 100 | > 100 | > 100 | > 100 | > 100 | > 100 | > 100
